Reference: publication PMC4267740, “Unprecedented Therapeutic Potential with a Combination of A2A/NR2B Receptor Antagonists as Observed in the 6-OHDA Lesioned Rat Model of Parkinson's Disease” (PLoS ONE, 2014)
“Also recorded” adds a separate entry of the source.

Tests used:
[1] = tested on: haloperidol-induced catalepsy; settings: threshold dose of Theophylline; cited from earlier work
[2] = tested on: L-Dopa-induced dyskinesia; set-up: method as in PMID 18759356; settings: randomized double-blind placebo-controlled clinical trial; cited from earlier work
[3] = tested on: rats with a unilateral lesion of the medial forebrain bundle; settings: cited from earlier work
[4] = tested on: Reserpine-induced akinesia; set-up: method as in PMID 9918703; settings: cited from earlier work
[5] = tested on: unilateral 6-OHDA-lesioned rats; assay: Distance traveled in actometers, monotherapy (without L-Dopa); type: in vivo, rat
Method: (§1) To protect norepinephrinergic neurons, animals were administered imipramine HCl (Sigma) 15 minutes before surgery. They were subsequently anesthetized with ketamine (Ceva, 75 mg/kg) and xylazine (Bayer, 10 mg/kg) and placed in stereotaxic frame (David Kopf Instrument). 6-OHDA was injected into the right ascending medial forebrain bundle at the following coordinates (in mm) relative to bregma and surface of the dura, AP = −3.5, ML = −1.5, DV = −8.7. Each rat received one injection of 6-OHDA (4 µg/µl) over a period of 5 minutes (0.5 µl/min) for a total of 10 µg per rat. Animals were monitored for 3 weeks to ensure full recovery and habituation to the environment and experimenters.
(§2) On day 21 post surgery, all rats were challenged with a small dose of subcutaneously administered apomorphine (Sigma, 0.05 mg/kg). Rats showing more than 90 contralateral rotations (360°) over a 45-minute recording period were included in the study. […] For each experiment, rats were allocated to the different experimental groups in order to get the same mean level of basal activity measured at the apomorphine challenge amongst the different experimental groups.
(§3) Drug-naïve separate rats were tested individually in clear acrylic chambers (LE8811 IR, Panlab). Locomotion was detected and measured by 16 infrared light-beam sensors located on each side of the enclosure at a height of 3 cm. Sensors were spaced such that the light beams formed a matrix of 15×15 squares over the surface. Activity counts were recorded on a computer and Acti-Track software (Actitrack, Panlab) was used to convert raw data into “distance traveled” and “rearing counts” for analysis as relevant dependent variables.
(§4) Six different combinations of A2A/NR2B antagonists were tested without L-Dopa. For each combination, there were four different procedures: vehicle only; A2A antagonist followed by vehicle; vehicle followed by the NR2B antagonist and A2A antagonist followed by the NR2B antagonist. The drugs, doses and combinations are described in Table 3. After drug administration, rats were placed in actometers (open-field) for monitoring the general level of motor activity (distance traveled and rearing counts).
(§5) Before undertaking the study, each A2A and NR2B antagonist was tested individually. The doses were selected on the basis of preliminary dose-response curves performed separately for each drug and submaximal dose (i.e. response observed is not at its maximal level) of each drug was selected for the combination studies. The two drugs were administered separately via an intraperitoneal (ip) injection with a 2-minute interval between the two drugs. Five minutes after the second injection, animals were placed in the testing cage for behavioural recording. Due to formulation and exposure issues, Tozadenant and Radiprodil had to be administered orally and therefore recording was started 60 minutes post dosing at this corresponds to maximum plasma concentrations. Eight drug-naïve animals were used for each of the four procedures; 32 in total for each combination. All behavioral experiments were conducted between 8.00 AM and 2.00 PM at the latest. Preliminary pharmacokinetic assays investigated the plasma and brain disposition of selected drugs administered alone or in combination (ie. Tozadenant/Radiprodil, and Sch-58261/Co-101244; 3 animals per group). Tozadenant and Radiprodil were measured in samples obtained 60 minutes after single oral administration at 30 mg/kg. Sch-58261 and Co-101244 were measured in samples collected 90 min after single intraperitoneal administration at 3 mg/kg.
(§6) The effects of A2A and NR2B antagonists on the level of motor activity (i.e. distance traveled and rearing counts) were assessed with three-way mixed ANOVA, combining the A2A receptor antagonist (2 levels, vehicle and the A2A drug) and the NR2B antagonist (2 levels, vehicle and the NR2B drug) as between-group factors with the time as within-subjects factor (6 or 9 levels). […]

[6] = tested on: unilateral 6-OHDA-lesioned rats; assay: Rearing counts in actometers, monotherapy (without L-Dopa); type: in vivo, rat
Method: as §1, §2, §3, §4, §5, §6

[7] = target: A2A; set-up: method as in PMID 21810444, PMID 9933143, PMID 17236762; settings: in vitro binding; rat or human; cited from earlier work
[8] = target: A1; set-up: method as in PMID 21810444, PMID 9933143, PMID 17236762; settings: in vitro binding; rat or human; cited from earlier work
[9] = target: A2B; set-up: method as in PMID 21810444, PMID 9933143, PMID 17236762; settings: in vitro binding; rat or human; cited from earlier work
[10] = target: A3; set-up: method as in PMID 21810444, PMID 9933143, PMID 17236762; settings: in vitro binding; rat or human; cited from earlier work
[11] = tested on: CYP3A; set-up: method as in PMID 18552277; settings: human subjects; cited from earlier work
[12] = tested on: P-gp; set-up: method as in PMID 18552277; settings: human subjects; cited from earlier work
[13] = tested on: PD patients; settings: cited from earlier work
[14] = tested on: unilateral 6-OHDA-lesioned rats; assay: L-Dopa-induced contralateral rotations in rotometers, add-on therapy; type: in vivo, rat; settings: add-on to L-Dopa 25 mg/kg ip, Preladenant 0.03 mg/kg ip
Method: as §1, §2
The rats tested one week earlier for general activity (actometers) were once again placed in clear acrylic individual chambers (50×45 cm) with the same treatment (drug and dose) than that previously received plus L-Dopa. Eight chambers were placed on a level, clear glass bottom, held by a robust frame, and were subdivided into four individual test cages of 25×22 cm. A removable acrylic plate served as a lid.
Rotational behaviour was recorded using a home-made computerized system. Rats were fixed in a harness and linked to mechanical sensors connected directly to a computer. Each 360° clock-wise or counter clock-wise turn was automatically recorded for up to 120 minutes at the maximum. Throughout the experiments, rats were allocated to individual test cages.
Four different combinations were administered as add-on treatment to a low active dose of L-Dopa (25 mg/kg, ip) without any dopa decarboxylase inhibitor to avoid any additional pharmacokinetic interaction. The doses of the compounds were selected on the basis of preliminary dose-response curves performed separately for each drug. To avoid ceiling effect with L-Dopa, only submaximal doses of each drug were selected for testing (as it was done previously for monotherapy). Eight L-Dopa naïve animals were tested for each of the four pharmacological condition: vehicle and L-Dopa (25 mg/kg); A2A antagonist followed by vehicle and L-Dopa; vehicle followed by NR2B antagonist and L-Dopa; A2A antagonist followed by NR2B and L-Dopa. Due to the dominance of the L-Dopa-effect on the lesioned striatum, the unilateral 6-OHDA-lesioned rats rotated after the drugs administration and behavioral activity was recorded in rotometers (i.e. level of contralateral rotations).
All drugs were administered i.p. 25 minutes before behavioural recording, except for the Tozadenant and Radiprodil combination which was administered orally 60 minutes before behavioural recording. As Radiprodil was administered orally, L-Dopa was given 45 minutes after the Radiprodil injection whereas for the other combinations L-Dopa was given 15 minutes after the NR2B drug. The drugs, the doses and the combinations given in co-administration to L-Dopa are described in Table 4 .
The impact of treatment with A2A or NR2B receptor antagonists, given alone or in combination, on the effect of L-Dopa on contralateral rotations was also analysed with a three-way mixed ANOVA. The ANOVA included the A2A and the NR2B receptor antagonists (both, 2 levels, vehicle and the drug) as between-group factors combined with time (12 levels) as within-subjects factor. […] The ability of the combination to increase and prolong the activity of L-Dopa was also explored. Consequently, drug effects were analyzed for every 10-min time interval. […]

[15] = tested on: cytochrome P-450 (CYP); set-up: method as in earlier work; settings: ref 62 (Preladenant), 49 (Merck 22); cited from earlier work
[16] = tested on: P-glycoprotein (Pgp); set-up: method as in earlier work; settings: ref 62 (Preladenant), 49 (Merck 22); cited from earlier work
[17] = tested on: unilaterally 6-OHDA-lesioned rats; set-up: method as in PMID 15081591; settings: rotometer; cited from earlier work
[18] = Istradefylline 0.3 mg/kg ip, Co-101244 1 mg/kg ip
[19] = Preladenant 0.1 mg/kg ip, Merck 22 0.3 mg/kg ip
[20] = Preladenant 0.1 mg/kg ip, Radiprodil 1 mg/kg ip

C/C(=C\C(N)C(=O)O)CP(=O)(O)O (stereo not drawn) [CGP37849]
Effect of co-administration with Theophylline on haloperidol-induced catalepsy [1]: potentiate the effects of a threshold dose of Theophylline

C[C@@H]([C@@H](O)c1ccc(O)cc1)N1CCC(O)(c2ccccc2)CC1 [CP-101,606]
Efficacy in counteracting L-Dopa-induced dyskinesia [2]: demonstrated efficacy

O=C(O)C1CN(CCCP(=O)(O)O)CCN1 (stereo not drawn) [CPP]
Effect on stepping deficit [3]: ameliorate the stepping deficit

CC(C(O)c1ccc(O)cc1)N1CCC(Cc2ccccc2)CC1 (stereo not drawn) [Ifenprodil]
Effect on Reserpine-induced akinesia [4]: counteract Reserpine-induced akinesia at the highest dose tested

CCn1c(=O)c2c(nc(/C=C/c3ccc(OC)c(OC)c3)n2C)n(CC)c1=O [Istradefylline]
Distance traveled, drugs alone vs vehicle, p (Newman-Keuls) [5, 18]: not all drugs when administered alone improved distance traveled; also recorded: Not significant
Distance traveled, drugs main effect, p (three-way mixed ANOVA) [5, 18]: p<0.001
Distance traveled, drugs × time effect, p (three-way mixed ANOVA) [5, 18]: Not significant
Rearing counts, drugs alone vs vehicle, p (Newman-Keuls) [6, 18]: Istradefylline, p<0.01
Rearing counts, drugs main effect, p (three-way mixed ANOVA) [6, 18]: p<0.001
Rearing counts, drugs × time effect, p (three-way mixed ANOVA) [6, 18]: p<0.01
Ki [7]: 12 nM
Ki [8]: 841 nM
Ki [9]: > 10000 nM
Ki [10]: 4470 nM
Effect on CYP3A-mediated drug metabolism [11]: does not impair
Inhibition of P-gp [12]: modest inhibition
Clinical efficacy when combined with L-Dopa ([13]; PD patients): demonstrated significant efficacy
Clinical benefit as monotherapy (without L-Dopa) ([13]; de-novo PD patients): did not produce statistically significant benefits

Cc1ccc(COC(=O)N2CC[C@H](CNc3ncccn3)[C@H](F)C2)cc1 [MK-0657]
Result of clinical study as monotherapy ([13]; single clinical study): negative results

COCCOc1ccc(N2CCN(CCn3ncc4c3nc(N)n3nc(-c5ccco5)nc43)CC2)cc1 [Preladenant]
Distance traveled, drugs alone vs vehicle, p (Newman-Keuls) [5, 19]: Preladenant: p<0.001
Distance traveled, drugs main effect, p (three-way mixed ANOVA) [5, 19]: p<0.001
Distance traveled, drugs × time effect, p (three-way mixed ANOVA) [5, 19]: Not significant
Distance traveled, drugs alone vs vehicle, p (Newman-Keuls) [5, 20]: Both p<0.05
Distance traveled, drugs main effect, p (three-way mixed ANOVA) [5, 20]: p<0.001
Distance traveled, drugs × time effect, p (three-way mixed ANOVA) [5, 20]: Not significant
Distance traveled, drug alone in comparison to vehicle-treated controls ([5]; drug administered alone): significant increase
Rearing counts, drugs alone vs vehicle, p (Newman-Keuls) [6, 19]: Preladenant p<0.001
Rearing counts, drugs main effect, p (three-way mixed ANOVA) [6, 19]: p<0.001
Rearing counts, drugs × time effect, p (three-way mixed ANOVA) [6, 19]: p<0.001
Rearing counts, drugs alone vs vehicle, p (Newman-Keuls) [6, 20]: Preladenant p<0.001
Rearing counts, drugs main effect, p (three-way mixed ANOVA) [6, 20]: p<0.001
Rearing counts, drugs × time effect, p (three-way mixed ANOVA) [6, 20]: Not significant
Contralateral rotations, drugs alone vs vehicle, p (planned contrasts on each 10-min interval) ([14]; Merck 22 1 mg/kg ip): Not significant
Contralateral rotations, drugs main effect, p (three-way mixed ANOVA) ([14]; Merck 22 1 mg/kg ip): p<0.05
Contralateral rotations, drugs × time effect, p (three-way mixed ANOVA) ([14]; Merck 22 1 mg/kg ip): p<0.001
Contralateral rotations, drugs alone vs vehicle, p (planned contrasts on each 10-min interval) ([14]; Radiprodil 0.3 mg/kg ip): Not significant
Contralateral rotations, drugs main effect, p (three-way mixed ANOVA) ([14]; Radiprodil 0.3 mg/kg ip): p<0.01
Contralateral rotations, drugs × time effect, p (three-way mixed ANOVA) ([14]; Radiprodil 0.3 mg/kg ip): p<0.001
Ki [8]: > 1000 nM
Ki [9]: > 1700 nM
Ki [10]: > 1000 nM
In-vitro drug interactions with cytochrome P-450 (CYP) [15]: devoid of in-vitro risks of drug interactions
In-vitro drug interactions with P-glycoprotein (Pgp) [16]: devoid of in-vitro risks of drug interactions

CC(C(O)c1ccc(O)cc1)N1CCC(Cc2ccccc2)CC1 (stereo not drawn) [Ro 25–6981]
Induction of contralateral rotations as monotherapy [17]: inducing contralateral rotations

C[C@]12N[C@H](Cc3ccccc31)c1ccccc12 [dizocilpine]
Effect of co-administration with Theophylline on haloperidol-induced catalepsy [1]: potentiate the effects of a threshold dose of Theophylline
